# Experimental data reported in patent US9000022B2 (Exelixis Patent Company LLC, priority 2005, dated 2015).
# System: LXRα and/or LXRβ
# Assay: Co-transfection assay (LXRE luciferase reporter, CV-1 cells)
# Assay type: cell-based, human
# Conditions: read-out: activity (IC50 or EC50 for LXR), tested as described in Example 33, isoform not specified
# In short: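 Luciferase signal measures LXR-RXR transcriptional activation in transiently transfected CV-1 cells carrying human LXRα or LXRβ, RXRα and a single-copy LXRE reporter. Cells were exposed to compound for 20 h at 37 °C with at most 1% DMSO, using 10 μM final for screening. Potency was derived from 4-parameter fits of 8-point, half-log dose curves averaged over ≥3 runs, and efficacy was expressed as % of a reference agonist.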
row,SMILES,EC50
1,"CCS(=O)(=O)c1cccc(-c2ccc(-n3cc(C(C)(C)O)nc3Cc3cccc(Cl)c3Cl)c(C)c2)c1 [Example 24, 2-(2-(2,3-dichlorobenzyl)-1-(3′-(ethylsulfonyl)-3-methylbiphenyl-4-yl)-1H-imidazol-4-yl)propan-2-ol]",< 1000 nM

# Same assay, conditions: tested as described in Example 33; IC50 or EC50 for LXRα and/or LXRβ, isoform not specified; read-out: activity (IC50 or EC50 for LXR)
row,SMILES,"IC50 or EC50 (potency, activation or inhibition)"
1,"CCOC(=O)c1cc(-c2ccc(-n3cc(C(C)(C)O)nc3-c3ccccc3C(F)(F)F)cc2)cc(S(C)(=O)=O)c1 [Example 401, ethyl 4′-{4-(1-hydroxy-1-methylethyl)-2-[2-(trifluoro-methyl)phenyl]-1H-imidazol-1-yl}-5-(methylsulfonyl)biphenyl-3-carboxylate]",1000 to 10000 nM
2,"CC(C)(O)c1cn(-c2cccc(-c3ccc(S(C)(=O)=O)cc3)c2)c(-c2ccccc2C(F)(F)F)n1 [Example 407, 2-{1-[4′-(methylsulfonyl)biphenyl-3-yl]-2-[2-(trifluoromethyl)phenyl]-1H-imidazol-4-yl}propan-2-ol]",< 1000 nM
3,"CCS(=O)(=O)c1cccc(-c2ccc(-n3cc(C(C)(C)O)nc3-c3ccccc3C(F)(F)F)cc2F)c1 [Example 112, 2-(1-(3′-(ethylsulfonyl)-2-fluoro-biphenyl-4-yl)-2-(2-(trifluoro-methyl)phenyl)-1H-imidazol-4-yl)propan-2-ol]",< 1000 nM
4,"CCS(=O)(=O)c1cccc(-c2ccc(-n3cc(C(=O)NC(C)(C)CO)nc3-c3c(Cl)cccc3Cl)c(Cl)c2)c1 [Example 464, 1-(3-chloro-3′-(ethylsulfonyl)biphenyl-4-yl)-2-(2,6-dichlorophenyl)-N-(1-hydroxy-2-methylpropan-2-yl)-1H-imidazole-4-carboxamide]",< 1000 nM
5,"CC(C)(O)c1nc(-c2ccccc2C(F)(F)F)n(-c2ccc(-c3cccc(S(C)(=O)=O)c3)cc2)c1F [Example 406, 2-{5-fluoro-1-[3′-(methyl-sulfonyl)biphenyl-4-yl]-2-[2-(trifluoro-methyl)phenyl]-1H-imidazol-4-yl}propan-2-ol]",< 1000 nM
6,"CC(C)(O)c1cn(-c2ccc(-c3ccc(CO)c(S(C)(=O)=O)c3)cc2Cl)c(-c2c(F)cccc2Cl)n1 [Example 147, 2-(1-(3-chloro-4′-(hydroxymethyl)-3′-(methylsulfonyl)biphenyl-4-yl)-2-(2-chloro-6-fluorophenyl)-1H-imidazol-4-yl)propan-2-ol]",< 1000 nM
7,"NS(=O)(=O)c1cccc(-c2ccc(-c3[nH]c(C(F)(F)F)nc3-c3ccccc3Cl)s2)c1 [Example 362, 3-{5-[4-(2-chlorophenyl)-2-(trifluoro-methyl)-1H-imidazol-5-yl]-2-thienyl}benzenesulfonamide]",< 1000 nM
8,"CC(C)(O)c1cn(-c2ccc(-c3ccc(CO)c(S(C)(=O)=O)c3)cc2)c(-c2cccc(Cl)c2Cl)n1 [Example 98, 2-(2-(2,3-dichlorophenyl)-1-(4′-(hydroxymethyl)-3′-(methyl-sulfonyl)biphenyl-4-yl)-1H-imidazol-4-yl)propan-2-ol]",< 1000 nM
9,"CC(C)(O)c1cn(-c2ccc(-c3cccc(S(C)(=O)=O)c3)cc2)c(-c2ccccc2C(F)(F)F)n1 [Example 198, 2-{1-[3′-(methylsulfonyl)biphenyl-4-yl]-2-[2-(trifluoromethyl)phenyl]-1H-imidazol-4-yl}propan-2-ol]",< 1000 nM
10,"CCS(=O)(=O)c1cccc(-c2ccc(-n3cc(C(C)(C)O)nc3-c3cccc(Cl)c3C)c(Cl)c2)c1 [Example 144, 2-(2-(3-chloro-2-methylphenyl)-1-(3-chloro-3′-(ethylsulfonyl)biphenyl-4-yl)-1H-imidazol-4-yl)propan-2-ol]",< 1000 nM
11,"CC(C)(O)c1cn(Cc2ccccc2Cl)c(-c2ccc(-c3cccc(S(C)(=O)=O)c3)cc2)n1 [Example 443, 2-(1-(2-chlorobenzyl)-2-(3′-(methylsulfonyl)biphenyl-4-yl)-1H-imidazol-4-yl)propan-2-ol]",< 1000 nM
12,"CC(=O)c1cn(-c2ccc(-c3cccc(S(C)(=O)=O)c3)cc2)c(-c2ccccc2F)n1 [Example 381, 1-{2-(2-fluorophenyl)-1-[3′-(methylsulfonyl)biphenyl-4-yl]-1H-imidazol-4-yl}ethanone]",1000 to 10000 nM
13,"CCS(=O)(=O)c1cccc(-c2ccc(-n3cc(C(C)(C)O)nc3-c3c(F)cccc3F)c(F)c2)c1 [Example 131, 2-(2-(2,6-difluorophenyl)-1-(3′-(ethylsulfonyl)-3-fluorobiphenyl-4-yl)-1H-imidazol-4-yl)propan-2-ol]",1000 to 10000 nM
14,"CS(=O)(=O)c1cccc(-c2ccc(-n3cc(C(F)(F)F)nc3-c3ccccc3Cl)cc2)c1 [Example 358, 2-(2-chlorophenyl)-1-[3′-(methyl-sulfonyl)biphenyl-4-yl]-4-(trifluoro-methyl)-1H-imidazole]",< 1000 nM
15,"C/C(=N\O)c1cn(-c2ccc(-c3cccc(S(C)(=O)=O)c3)cc2)c(-c2c(Cl)cccc2Cl)n1 [Example 70, (E)-1-(2-(2,6-dichlorophenyl)-1-(3′-(methylsulfonyl)biphenyl-4-yl)-1H-imidazol-4-yl)ethanone oxime]",< 1000 nM
16,"CC(C)(CO)c1cn(-c2ccc(-c3cccc(S(C)(=O)=O)c3)cc2)c(-c2c(Cl)cccc2Cl)n1 [Example 479, 2-(2-(2,6-dichlorophenyl)-1-(3′-(methylsulfonyl)biphenyl-4-yl)-1H-imidazol-4-yl)-2-methylpropan-1-ol]",< 1000 nM
17,"CC(C)(O)c1cn(-c2cccc(-c3cccc(S(C)(=O)=O)c3)c2)c(-c2ccccc2C(F)(F)F)n1 [Example 201, 2-{1-[3′-(methylsulfonyl)biphenyl-3-yl]-2-[2-(trifluoromethyl)phenyl]-1H-imidazol-4-yl}propan-2-ol]",< 1000 nM
18,"C/C(=N\O)c1cn(-c2ccc(-c3cccc(S(C)(=O)=O)c3)cc2)c(-c2ccccc2C(F)(F)F)n1 [Example 412, 1-{1-[3′-(methylsulfonyl)biphenyl-4-yl]-2-[2-(trifluoromethyl)phenyl]-1H-imidazol-4-yl}ethanone oxime]",< 1000 nM
19,"CC(C)(O)c1cn(-c2ccc(-c3cc(S(C)(=O)=O)ccc3Cl)cc2)c(-c2c(Cl)cccc2Cl)n1 [Example 107, 2-(1-(2′-chloro-5′-(methyl-sulfonyl)biphenyl-4-yl)-2-(2,6-dichlorophenyl)-1H-imidazol-4-yl)propan-2-ol]",< 1000 nM
20,"CS(=O)(=O)c1cccc(-c2ccc(-n3cc(C(F)(F)F)nc3-c3ccccc3C(F)(F)F)nc2)c1 [Example 369, 5-[3-(methylsulfonyl)phenyl]-2-{4-(trifluoromethyl)-2-[2-(trifluoro-methyl)phenyl]-1H-imidazol-1-yl}pyridine]",< 1000 nM
21,"Cc1cc(-c2ccc(CO)c(S(C)(=O)=O)c2)ccc1-n1cc(C(C)(C)O)nc1-c1c(F)cccc1F [Example 178, 2-(2-(2,6-difluorophenyl)-1-(4′-(hydroxymethyl)-3-methyl-3′-(methylsulfonyl)biphenyl-4-yl)-1H-imidazol-4-yl)propan-2-ol]",< 1000 nM
22,"CC(C)(O)CNC(=O)c1cn(-c2ccc(-c3cccc(S(C)(=O)=O)c3)cc2Cl)c(-c2c(Cl)cccc2Cl)n1 [Example 472, 1-(3-chloro-3′-(methylsulfonyl)biphenyl-4-yl)-2-(2,6-dichlorophenyl)-N-(2-hydroxy-2-methylpropyl)-1H-imidazole-4-carboxamide]",< 1000 nM
23,"CC(C)(O)c1cn(-c2ccc(-c3cccc(S(C)(=O)=O)c3)cc2Cl)c(-c2c(Cl)cccc2Cl)n1 [Example 142, 2-(1-(3-chloro-3′-(methyl-sulfonyl)biphenyl-4-yl)-2-(2,6-dichlorophenyl)-1H-imidazol-4-yl)propan-2-ol]",< 1000 nM
24,"CS(=O)(=O)c1cccc(-c2ccc(-n3cc(C(=O)NCC(=O)O)nc3-c3c(Cl)cccc3Cl)c(Cl)c2)c1 [Example 461, 2-(1-(3-chloro-3′-(methyl-sulfonyl)biphenyl-4-yl)-2-(2,6-dichlorophenyl)-1H-imidazole-4-carboxamido)acetic acid]",> 10000 nM
25,"CCS(=O)(=O)c1cccc(-c2ccc(-n3cc(C(C)(C)O)nc3-c3cccc(Cl)c3Cl)c(Cl)c2)c1 [Example 141, 2-(1-(3-chloro-3′-(ethyl-sulfonyl)biphenyl-4-yl)-2-(2,3-dichlorophenyl)-1H-imidazol-4-yl)propan-2-ol]",< 1000 nM
26,CC(O)(c1cn(-c2ccc(-c3cccc(S(C)(=O)=O)c3)cc2)c(-c2ccccc2C(F)(F)F)n1)C(F)(F)F (stereo not drawn) [Example 67],< 1000 nM
27,"CS(=O)(=O)c1cccc(-c2ccc(-n3cc(C(=O)NCCO)nc3-c3c(Cl)cccc3Cl)cc2)c1 [Example 84, 2-(2,6-dichlorophenyl)-N-(2-hydroxyethyl)-1-(3′-(methyl-sulfonyl)biphenyl-4-yl)-1H-imidazole-4-carboxamide]",< 1000 nM
28,"CC(C)(O)c1cn(-c2ccc(-c3cccc(S(C)(=O)=O)c3)cc2Cl)c(-c2ccccc2C(F)(F)F)n1 [Example 135, 2-(1-(3-chloro-3′-(methyl-sulfonyl)biphenyl-4-yl)-2-(2-(trifluoromethyl)phenyl)-1H-imidazol-4-yl)propan-2-ol]",< 1000 nM
29,"CC(C)(O)c1cn(-c2ccc(-c3cccc(S(C)(=O)=O)c3)cc2)c(-c2cccc(Cl)c2Cl)n1 [Example 382, 2-{2-(2,3-dichlorophenyl)-1-[3′-(methylsulfonyl)biphenyl-4-yl]-1H-imidazol-4-yl}propan-2-ol]",< 1000 nM
